# Entries after “also recorded” stand apart in the source; their conditions may differ. Bridge positions count the residues as written; N and C are the ends. Ends that are not written are not given here.
# Assays:
# [1] = tested on: mice; experiment: Catalepsy (bar test); type: in vivo, mouse
# Method: Catalepsy is a state of immobility, and was measured by means of the bar test. The forepaws of the animal were placed on a bar (0.75 cm in diameter and 5 cm above the floor) and the latency until the mouse moved the forepaws off the bar was measured.
# [2] = tested on: mice; experiment: Open-field test (spontaneous activity); type: in vivo, mouse
# Excerpt: The open-field apparatus consisted of a white Plexiglas box (40×40×30 cm) with 16 squares (10×10 cm) painted on the floor (12 outer and 4 inner). Each mouse was placed in the center of the apparatus to initiate a 15-min test session. The number of entrances to the inner squares, time (min) spent in the inner squares, and total distance moved within the field (cm) were monitored.
# [3] = tested on: mice; experiment: Rotarod (forced activity); type: in vivo, mouse
# Method: Forced activity (Rotarod) was analyzed using the Rotarod apparatus (Jones and Roberts 7650, Ugo Basile, Italy). Animals were placed on an accelerating rod, and time required for each mouse to fall from the rod was recorded. Out of three trails, the longest time taken for an animal to fall from the rod was recorded and used for analysis.
# [4] = tested on: C57Bl/6J naïve mice; experiment: Acoustic startle response / prepulse inhibition (PPI) in naïve mice; type: in vivo, mouse; settings: 30 min before test, prepulse 69, 73, 78 or 81 dB
# Method: (§1) Acoustic startle response testing was performed within startle chambers purchased from Med Associates, Inc. (Med Associates, St. Albans, Vt., USA), as described in Cardon et al., 2010. During a period of acclimation, a 65-decibel (dB) background noise was presented for 5-min, and continued throughout the test session. All sessions for testing of acoustic startle response consisted of startle trials (pulse alone, 40-milliseconds (ms), 120-dB), prepulse trials (prepulse 20-ms, 69, 73, 78, or 81 dB followed by a [100-ms delay] pulse), and no-stimulus trials. All sessions were presented in pseudo-random order. The average time between trials was 15 seconds (range 12-30 seconds). Startle response was calculated from the reaction to the first pulse-alone trial.
# (§2) PPI was calculated as: % PPI=100−{[(startle response for prepulse+pulse)/(startle response for pulse-alone)]×100}. Reduced PPI indicates schizophrenia-related behavior.
# To test Peptide 2 (SEQ ID NO: 10), the peptide was dissolved in DMSO and then diluted in PBS to a final concentration of 1% (w/v) DMSO. Male C57Bl/6J naïve mice were injected intraperitoneally with 15 μg of the peptide or with 1% DMSO in PBS (control). Prepulse intensity analysis was performed after 30 minutes at 69, 73, 78 or 81 decibels. […]
# [5] = tested on: MK-801 treated C57BL/6J mice; experiment: PPI in the MK-801 drug-induced model of schizophrenia; type: in vivo, mouse
# Method: MK-801 (Sigma) was used at 0.1 mg/kg and administered 15 min prior to the PPI analysis.
# as §1, §2
# MK-801 (an antagonist of the N-methyl-D-aspartate (NMDA) receptor channel) acts as a psychomimetic agent, inducing psychotic symptoms that mimic the cognitive impairment and behavioral abnormalities associated with schizophrenia.
# The neurotransmitter imbalance induced by MK-801 causes PPI dysfunction, one of the characteristic features of patients with schizophrenia. In an experiment depicted in FIG. 2, C57BL/6J mice were injected with Kp-10 (13 μg/mouse, light gray bars), or with Peptides 6 (8.75 μg/mouse, medium gray bars) or 8 (8.75 μg/mouse, dark gray bars) dissolved in DMSO and then diluted in PBS to a final concentration of 0.2% (w/v) DMSO; the control group received 0.2% DMSO in PBS (black bars). After 15 min, MK-801 (0.1 mg/kg) was injected; 15 min later, measurement of the PPI was performed.
# [6] = tested on: naïve mice; settings: Kp-10, WO 2010/137022 (FIG. 10C); dose equivalent to 0.29 mg/kg Peptide 6; cited from earlier work
# [7] = Kp-10, after 60 min (Chan et al., 2011); cited from earlier work
# [8] = tested on: SCID mice that have impaired PPI response and several schizophrenia mouse models; settings: Kp-10 administration, WO 2010/137022; cited from earlier work
# [9] = tested on: several mouse models; settings: Kp-10, WO 2010/137022; cited from earlier work
# [10] = tested on: BDNF mRNA; settings: hippocampal slices (Arai et al., 2009); cited from earlier work
# [11] = tested on: mice; experiment: Sedative effect (sedative score); settings: data not shown
# Method: Sedative effect was evaluated by observing the mice and scoring their sedative state as follows: 0, spontaneous movement; 1, mild intermittent spontaneous movement; 2, severe intermittent spontaneous movement; 3, no spontaneous movement; 4, loss of auditory reflex; 5, loss of corneal reflex; 6, loss of response to tail pinch.
# Sedative effect was evaluated by observing the animal using a sedative score.
# [12] = Plasma stability (HPLC, Cerep); type: in vitro ADME; settings: 1 μM in human plasma
# Method: 1 μM Peptide 6 was dissolved in human plasma, and peptide concentration was analyzed by HPLC after 0, 0.5, 1, 1.5, 2 h of incubation. The assay was performed by Cerep, Inc (Redmond, Wash., U.S.A).
# [13] = 13 μg/mouse, MK-801 0.1 mg/kg after 15 min, PPI 15 min later
molecule,measurement,setting,value
O=C(CCCN1CCC(O)(c2ccc(Cl)cc2)CC1)c1ccc(F)cc1 [Haloperidol],catalepsy effect,[1]; 1 mg/kg i.p.,had catalepsy effects
same,spontaneous activity in the open field,[2]; 1 mg/kg i.p.,reduced mice activity
same,forced activity in the Rotarod,[3]; 1 mg/kg i.p.,reduced mice activity
"Peptide 2: cystine (S—S) cyclic modified Kp-10 derived peptide, used for comparison only (CYNWNSFGLRFC-NH2; disulfide 1-12; N-terminus assumed; SMILES CC(C)C[C@@H]1NC(=O)CNC(=O)[C@H](Cc2ccccc2)NC(=O)[C@H](CO)NC(=O)[C@H](CC(N)=O)NC(=O)[C@H](Cc2c[nH]c3ccccc23)NC(=O)[C@H](CC(N)=O)NC(=O)[C@H](Cc2ccc(O)cc2)NC(=O)[C@@H](N)CSSC[C@@H](C(N)=O)NC(=O)[C@H](Cc2ccccc2)NC(=O)[C@H](CCCNC(=N)N)NC1=O)",% PPI relative to controls,[4]; 15 μg peptide i.p. in 1% DMSO in PBS,"slightly improved the % PPI relative to controls, however, the effect was not significant; also recorded: did not significantly improve the PPI response"
"Peptide 5: cystine (S—S) cyclic modified Kp-10 derived peptide, used for comparison only (CFGLRWC-NH2; disulfide 1-7; N-terminus assumed; SMILES CC(C)C[C@@H]1NC(=O)CNC(=O)[C@H](Cc2ccccc2)NC(=O)[C@@H](N)CSSC[C@@H](C(N)=O)NC(=O)[C@H](Cc2c[nH]c3ccccc23)NC(=O)[C@H](CCCNC(=N)N)NC1=O)",% PPI relative to controls,[4]; 8.3 μg peptide i.p. in 1% DMSO in PBS,"slightly improved the % PPI at 73, 78 and 81 decibels relative to controls, however, the effect was not significant; also recorded: did not significantly improve the PPI response"
C[C@]12N[C@H](Cc3ccccc31)c1ccccc12 [MK-801],PPI response compared to PBS injected control,"[5]; MK-801 alone 0.1 mg/kg, 15 min before PPI",the PPI response was reduced compared to the PBS injected control
YNWNSFGLRF-NH2 [Kp-10],PPI compared to MK-801 treated animals,[5]; [13],significantly improved PPI compared to the MK-801 treated animals; also recorded: significantly improved PPI compared to animals treated only with MK-801
same,PPI compared to control without MK-801 (restoration to normal),[5]; [13],improved PPI after MK-801 administration but did not abolish its affect
same,antidepressant effect / total immobility in tail suspension test,[6],antidepressant effect; also recorded: potential anti-depressive activity; also recorded: reduced the total immobility
same,level after 60 min,[7],below detectable level
same,PPI response levels,[8],improved PPI response levels
same,spatial learning and memory in a water maze,[9],improves spatial learning and memory in a water maze
same,BDNF mRNA levels,[10],elevate BDNF mRNA levels
Cc1nc2n(c(=O)c1CCN1CCC(c3noc4cc(F)ccc34)CC1)CCCC2 [Risperidone],PPI in MK-801 treated mice,[5]; 0.1 mg/kg i.p. with MK-801 (FIG. 4B),elevated PPI in the MK-801 treated mice
same,highest dose that can be injected without causing sedative effects (chosen dose),[11],0.1 mg/kg
"CC(C)C[C@@H]1NC(=O)CNC(=O)[C@H](Cc2ccccc2)NC(=O)[C@@H](N)Cc2ccc(cc2)N=Nc2cc(ccc2O)C[C@@H](C(N)=O)NC(=O)[C@H](Cc2c[nH]c3ccccc23)NC(=O)[C@H](CCCNC(=N)N)NC1=O [Peptide 6, Pap-Phe-Gly-Leu-Arg-Trp-Tyr-NH2]",catalepsy effect,[1]; 0.29 and 2.9 mg/kg i.p.,did not have catalepsy effect at either dosage tested
same,spontaneous activity in the open field,[2]; 0.29 and 2.9 mg/kg i.p.,did not affect activity level
same,forced activity in the Rotarod,[3]; 0.29 and 2.9 mg/kg i.p.,did not affect activity level
same,% Mean Compound Remaining,[12]; incubation time 0 minutes,100.0%
same,"remaining at 0.5 h, 1 μM","[12]; incubation time 30 minutes, read-out: % Mean Compound Remaining",119%
same,% Mean Compound Remaining,[12]; incubation time 60 minutes,94%
same,"remaining at 1 h, 1 μM","[12]; incubation time 60 minutes, read-out: % Mean Compound Remaining",93.7%
same,"remaining at 1.5 h, 1 μM","[12]; incubation time 90 minutes, read-out: % Mean Compound Remaining",97.2%
same,"remaining at 2 h, 1 μM","[12]; incubation time 120 minutes, read-out: % Mean Compound Remaining",71.8%
same,half-life,[12]; read-out: calculated half-life,> 2 h
Cc1cc2c(s1)Nc1ccccc1N=C2N1CCN(C)CC1 [Olanzapine],highest dose that can be injected without causing sedative effects (chosen dose),[11],0.375 mg/kg
